This is an account of results in EP4640672A1, “ETHYLENEDIAMINE DERIVATIVE, AND PREPARATION METHOD THEREFOR AND USE THEREOF” (Jiangsu Protelight Pharmaceutical & Biotechnology Co., Ltd., priority 2022, dated 2024).

A word on the IC50: it is the concentration that inhibits the measured activity by half. Low readings indicate greater potency, high ones weaker potency.

One experiment relates to Lung cancer A549. The experiment is described as follows: in vitro anti-tumor activity assay (MTT method). The class given is cell-based, human. To be noted: Lung cancer A549, culture medium F12, 48 h of culture. The method, then: (§1) Five human tumor cell lines were selected and cultured in RPMI-1640 (Gibco) or DMEM (Gibco) or GMEM/F12 medium (Gibco) containing 10% inactivated fetal bovine serum, 100 U/ml penicillin and […] streptomycin in an incubator containing 5% CO2 at 37°C. Logarithmically growing cells were seeded in 96-well plates (100 µl per well, 2 x 10^4 cells) using the MTT method, while setting blank control wells. After overnight incubation in the incubator, 100 µl of drug (final concentration 25 µM diluted to 0.39 µM, a total of 7 groups of drug concentrations) was added, an equal volume of culture medium was added in the blank control wells, and 3 duplicate wells were set for each drug concentration. After 48 h of culture, the supernatant was discarded. After washing twice with PBS, 100 µl of MTT (5mg/ml) was added to each well, and the culture was continued for 2 h. Absorbance (A492nm) was measured by a microplate reader to calculate the inhibition rate of the drug on tumor cells.
(§2) IC50 values of compounds on tumor cells were calculated using GraphPad software. […] Table 2. In vitro anti-tumor activity IC50 (µM) of example compounds

In a further experiment the test system is Liver cancer HepG2. The experiment is described as follows: in vitro anti-tumor activity assay (MTT method). The class given is cell-based, human. To be noted: Liver cancer HepG2, culture medium High-sugar DMEM, 48 h of culture. How it is done:
as §1, §2
(Tetrazolium dyes change colour on reduction, which living cells bring about.)

The subject of the next experiment is Lung cancer H460. The experiment is described as follows: in vitro anti-tumor activity assay (MTT method). The class given is cell-based, human. To be noted: 48 h of culture. How it is done: as §1, §2
In the next experiment the test system is Prostate cancer LNcap. As to the kind of experiment: in vitro anti-tumor activity assay (MTT method). The class given is cell-based, human. To be noted: culture medium RPMI-1640, 48 h of culture. The method, then:
as §1, §2

In a further experiment the test system is Prostate cancer PC-3. The experiment is described as follows: in vitro anti-tumor activity assay (MTT method). Type of experiment: cell-based, human. To be noted: Prostate cancer PC-3, culture medium F12, 48 h of culture. The method, then: as §1, §2
A further experiment deals with A549 lung cancer cells. As to the kind of experiment: in vivo anti-tumor efficacy assay, subcutaneous tumor model. The following applies: BALB/c nude mice, intraperitoneally 20 mg/kg once per two days, 10 times; for Tumor inhibition rate: calculated from tumor weight; for Mean tumor weight (g) (mean ± SD): weighed on 2nd day after last administration. How it is done:
An in vivo efficacy evaluation model was established in BALB/c nude mice. Each mouse was inoculated subcutaneously with 0.15 mL of tumor cell suspension (A549 lung cancer cells, 2 x 10^7 cells/ml) in the axillary fossa of the right forelimb. When the inoculated cells grew to 300 mm^3, the administration was started. On the 22nd day after inoculation, the mice were intraperitoneally administered (20 mg/kg) once per two days for a total of 10 times. On the 2nd day after the last administration, all the tumor-bearing mice were sacrificed, the tumors were weighed and the tumor inhibition rate was calculated. […] Table 3 Results of in vivo anti-tumor activity of the example compounds

Setting [1] is: Homo sapiens, NCI-H460, Lung cancer H460, culture medium High-sugar DMEM.

Molecules are shown by their SMILES.

For `CC1(C)CC(NC[C@H](Cc2ccc(-c3ccccc3)cc2)NC(=O)C=Cc2ccccc2)CC(C)(C)N1` (stereo in doubt) [Cpd014, (S)-N-(1-([1,1'-biphenyl]-4-yl)-3-((2,2,6,6-tetramethylpiperidin-4-yl)amino)propan-2-yl)cinnamamide], the IC50 in the experiment with Lung cancer A549 (Homo sapiens) is 2.34 µM; in the experiment with Liver cancer HepG2 (Homo sapiens), 1.09 µM; in the experiment on Lung cancer H460 (setting [1]) it was 1.58 µM; in the experiment with Prostate cancer LNcap (Homo sapiens), 1.02 µM; with Prostate cancer PC-3 (Homo sapiens), 3.31 µM. In addition, the Tumor inhibition rate in the experiment on A549 lung cancer cells is given as 32.73%. For the same compound, in the experiment with A549 lung cancer cells, the “Mean tumor weight (g) (mean ± SD)” value stood at 0.448 ± 0.128 g.
On to `N.N.[Cl][Pt][Cl]` [Cisplati num, Cisplatinum], for which the IC50 came out at 34 µM in the experiment on Lung cancer A549; 30.9 µM in the experiment with Liver cancer HepG2; 20.4 µM in the experiment with Lung cancer H460 (Lung cancer H460, culture medium High-sugar DMEM); 11.6 µM in the experiment on Prostate cancer LNcap; 68.6 µM in the experiment with Prostate cancer PC-3.
With `CC1(C)CC(NC[C@H](Cc2ccc(OCc3c(Cl)cccc3Cl)cc2)NC(=O)C/C=C/c2ccccc2)CC(C)(C)N1` [Cpd001, (S,E)-N-(1-(4-((2,6-dichlor obenzyl)oxy)phenyl)-3-((2,2,6,6-tetramethylpiperidin-4-yl)amino)propan-2-yl)-4-phenylbut-3-enamide], the IC50 in the experiment on Lung cancer A549 (Homo sapiens) stood at 2.69 µM; in the experiment with Liver cancer HepG2 (Homo sapiens), 0.97 µM; in the experiment on Lung cancer H460 (setting [1]), 0.99 µM; with Prostate cancer LNcap (Homo sapiens) it was 3.76 µM; with Prostate cancer PC-3 (Homo sapiens), 3.03 µM.
With `CCC(C(=O)N[C@H](CNC1CC(C)(C)NC(C)(C)C1)Cc1ccc(-c2ccccc2)cc1)C1CCCCC1` (stereo partly drawn) [Cpd009, N-((S)-1-([1,1'-biphenyl]-4-yl)-3-((2,2,6,6-tetramethylpiperidin-4-yl)amino)propan-2-yl)-2-cyclohexylbutanamide], the IC50 was determined as 1.94 µM in the experiment with Lung cancer A549 (Homo sapiens); 1.47 µM in the experiment on Liver cancer HepG2 (Homo sapiens); 2.26 µM in the experiment on Lung cancer H460 (setting [1]); 1.51 µM with Prostate cancer LNcap (Homo sapiens); 3.73 µM in the experiment with Prostate cancer PC-3 (Homo sapiens).
For the compound `CC(=O)O[C@@]12CO[C@@H]1C[C@H](O)[C@@]1(C)C(=O)[C@H](O)C3=C(C)[C@@H](OC(=O)[C@H](O)[C@@H](NC(=O)OC(C)(C)C)c4ccccc4)C[C@@](O)([C@@H](OC(=O)c4ccccc4)[C@H]21)C3(C)C` [Docetaxol, docetaxel], in the experiment on A549 lung cancer cells, the Tumor inhibition rate is given as 5.29% and the “Mean tumor weight (g) (mean ± SD)” value worked out at 0.631 ± 0.231 g.
Regarding `CC1(C)CC(NC(=O)C(Cc2ccc(-c3ccccc3)cc2)NC(=O)c2cc3ccccc3n2Cc2ccccc2)CC(C)(C)N1` (stereo not drawn) [PL-AC-15], the concentration for half-maximal inhibition (IC50) with Lung cancer A549 (Homo sapiens) is 4.38 µM; with Liver cancer HepG2 (Homo sapiens), 1.91 µM; in the experiment on Lung cancer H460 (setting [1]), 2.37 µM; in the experiment on Prostate cancer LNcap (Homo sapiens), 1.92 µM; in the experiment on Prostate cancer PC-3 (Homo sapiens), 4.31 µM.
Regarding `COc1ccc2cc(C(C)C(=O)NC(Cc3ccc(-c4ccccc4)cc3)C(=O)NC3CC(C)(C)NC(C)(C)C3)ccc2c1` (stereo not drawn) [PL-AC-202], the IC50 with Lung cancer A549 (Homo sapiens) came to 3.05 µM; in the experiment with Liver cancer HepG2 (Homo sapiens) it was 0.43 µM; in the experiment on Lung cancer H460 (setting [1]), 1.65 µM; with Prostate cancer LNcap (Homo sapiens), 3.24 µM; in the experiment on Prostate cancer PC-3 (Homo sapiens), 1.65 µM. The Tumor inhibition rate in the experiment on A549 lung cancer cells was 19.37%. Further, in the experiment with A549 lung cancer cells, the “Mean tumor weight (g) (mean ± SD)” value is 0.537 ± 0.198 g.
